Measurements: patent US5474988A, “5-phenylpyrrolo-1,4-benzoxazine and 5-phenylpyrrolo-1,4-benzothiazine compounds, process and intermediates for their production and pharmaceutical compositions containing them” (Kali-Chemie Pharma GmbH, priority 1993, dated 1995)

Tests used:
5-lipoxygenase = target: T1, 5-lipoxygenase (Cavia porcellus, UniProt A0A286X958); assay: inhibitory activity on free 5-lipoxygenase concentrated from peritoneal PMNs of the guinea-pig (5-HETE formation); assay type: biochemical; details: 10^-5 mole/liter; guinea-pig 5-LO, 37° C.; read-out: In vitro % inhibitory activity on 5-HETE formation caused by free 5-LO
T1 construct: The 5-LO was concentrated in a known manner from PMNs of male Dunkin-Hartley guinea-pigs; endogenous in cells; host or cells: peritoneal PMNs of male Dunkin-Hartley guinea-pigs, homogenized; 10,000 x g supernatant used as enzyme solution
T1 sequence (A0A286X958 1-674): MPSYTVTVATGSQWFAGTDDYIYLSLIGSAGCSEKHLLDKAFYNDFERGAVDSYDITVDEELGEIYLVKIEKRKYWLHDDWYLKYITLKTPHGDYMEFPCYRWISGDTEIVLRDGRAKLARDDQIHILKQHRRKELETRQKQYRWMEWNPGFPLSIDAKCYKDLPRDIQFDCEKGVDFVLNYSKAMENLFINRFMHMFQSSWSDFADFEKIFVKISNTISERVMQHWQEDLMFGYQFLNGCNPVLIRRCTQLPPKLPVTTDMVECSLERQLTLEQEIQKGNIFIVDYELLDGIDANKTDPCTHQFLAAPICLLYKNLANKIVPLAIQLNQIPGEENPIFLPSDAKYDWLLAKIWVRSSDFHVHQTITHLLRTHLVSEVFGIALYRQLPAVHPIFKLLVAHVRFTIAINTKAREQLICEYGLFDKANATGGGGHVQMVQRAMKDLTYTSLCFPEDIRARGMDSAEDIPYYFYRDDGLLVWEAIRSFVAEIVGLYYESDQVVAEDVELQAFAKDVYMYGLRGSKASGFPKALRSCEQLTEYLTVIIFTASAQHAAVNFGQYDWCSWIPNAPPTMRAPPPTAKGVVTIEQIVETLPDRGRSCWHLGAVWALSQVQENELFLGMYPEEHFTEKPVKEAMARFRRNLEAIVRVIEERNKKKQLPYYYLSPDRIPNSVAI
Excerpt: 4b. In vitro determination of inhibitory activity on 5-lipoxygenase concentrated from peritoneal PMNs of the guinea-pig.
An inhibition of 5-lipoxygenase can be caused by direct inhibitory action of the substances on the enzyme and/or by interference with the activation of the enzyme. While in test 4a the 5-lipoxygenase inhibition of the substances was investigated in rat PMN cells, in test 4b the inhibitory activity of the substances was investigated on free 5-LO concentrated from guinea-pig PMN cells according to the method of D. Aharony et al., J. Biol. Chem. 261 (1986), 11512-11519 (1986).
The 5-LO was concentrated in a known manner from PMNs of male Dunkin-Hartley guinea-pigs (body weight 400 to 500 g) as follows. 10 ml of a solution containing 27.9 g/l of sodium thioglycolate were injected i.p. into the animals in order to induce the PMN invasion as a result of this inflammatory stimulus. After 22 hours, the animals were sacrificed by lethal ether anaesthesia. 70 ml of HBSS without Ca^++ and Mg^++ ions and containing 0.2% by weight of sodium citrate were then injected into the abdominal cavity. The cell suspension (>80% of the cells are PMNs) was withdrawn from the abdominal cavity, filtered through a cheese-making filter cloth, and washed twice with a 50 mM potassium phosphate buffer solution of pH 7.4, which contained 0.5 mM ethylenediaminetetraacetic acid, 1% by weight of gelatine and 20 μM indomethacin. The cells were resuspended, and the PMN suspension containing 10^8 cells/ml was homogenized three times for 15 seconds each in an ice-bath in a homogenizer of the Labsonic™ type set at high speed. The resulting suspension was centrifuged at 4° C. (15 minutes at 10,000×g). The supernatant liquid was used for the investigation as a solution of the free 5-LO enzyme.
The experiments were carried out at 37° C. for 7 minutes using 0.625 ml samples of this enzyme solution. For the experiments, the enzyme solution (=equivalent of 2.5×10^7 cells), 0.5 mM glutathione, 1 mM ATP and 0.3 mM calcium chloride were added to test tubes. […] of the test substance were added to the samples dissolved in sufficient dimethylformamide such that the dimethylformamide concentration in each test tube is 0.5%. Only dimethylformamide was added to the control samples. After 2 minutes, the formation of 5-(S)-hydroxy-6,8,11,14-eicosatetraenoic acid (=[…]) was initiated by addition 10 μM arachidonic acid. After 5 minutes, the reaction was terminated by addition of 0.625 ml of a mixture of methyl acetate/methanol/0.2 m citric acid 15:2:0.5 v/v/v. 5-HETE was extracted twice using this solvent mixture. The 5-HETE-containing phases were combined and evaporated to dryness under a nitrogen atmosphere. The residue was taken up in a mixture of methanol/water/acetic acid 75:21:0.02 v/v/v having a pH of 5.7, and the solution was investigated for its content of 5-HETE by means of reverse phase HPLC. To accomplish this, a […] silanized silica gel column (Hichrom® ODS2, 250×4.6 mm) was employed as the adsorbent and a mixture of methanol/water/acetic acid 75:21:0.02 adjusted to pH 5.7 with ammonia and having a flow rate of 1 ml/min was used as the eluent. 5-HETE, which was eluted as a single peak after 20 minutes, was identified by comparison with standard solutions eluted at the same time and determined using a UV light detector at a wavelength of 235 nm. Quantitative determination was carried out by comparison of the peak area obtained with peak areas occurring in the calibrated standard solutions. From the 5-HETE contents of the samples determined, the inhibitory activity of the test substances was calculated in % inhibition of 5-HETE synthesis in comparison to the control samples containing no test substance.

[1] = test system: P.A.F.-induced aggregation of blood platelets; assay: anti-P.A.F. action in vitro (P.A.F.-induced platelet aggregation); assay type: cell-based; details: Oryctolagus cuniculus, 10^-5 mole/liter, read-out: Anti-P.A.F. activity in vitro, % inhibition of the P.A.F.-induced aggregation of blood platelets from rabbit blood
Excerpt: 3. Determination of the anti-P.A.F. action in vitro.
P.A.F. (=Platelet Activating Factor=Platelet Aggregation Factor) is a phospholipid mediator which has a multiplicity of actions. The activation of blood platelet aggregation results in the induction of long-lasting bronchoconstrictions and hyperreactivity of the respiratory passages.
In this test, the effect of the test substances on platelet aggregation induced by addition of P.A.F. in a platelet suspension obtained from rabbit blood was investigated according to the method described by Mikashima et al. (Jap. J. Pharmacol. 44 (1987) 387-391).
A suspension of platelets obtained from rabbit blood was used which contains 4×10^9 platelets/ml in a modified Tyrode buffer solution (=Tyrode solution with the addition of 1.3 mM/l of CaCl2 and 2.5 g/l of gelatine) adjusted to pH 7.4. Tyrode solution is an aqueous solution containing, per liter, 136.9 mmole of NaCl, 2.68 mmole of KCl, 2.31 mmole of CaCl2, 1.0 mmole of MgCl2, 11.9 mmole of NaHCO3, 1.45 mmole of NaH2 PO4 and 5.55 mmole of glucose. The platelets were concentrated from 10 ml blood samples of three rabbits (New Zealand hybrids, body weight 3-4 kg) in each case. To accomplish this, the blood samples were treated with ethylenediaminetetraacetic acid and washed according to the method of Artley et al. (Brit. J. Haematol. 19 (1970), 7-17). A platelet-rich plasma was first separated by centrifugation (20 minutes at 400×g). The platelets were separated from the plasma by repeated centrifugation for 15 minutes at 1400×g.After the centrifugation, the blood platelets remaining in the sediment were resuspended in a Tyrode buffer solution (but without calcium). 0.4 mmole of lysine acetylsalicylate was then added, and the blood platelets were sedimented again after 15 minutes. The sediment was resuspended in the aforementioned modified Tyrode buffer solution, and the number of platelets in the suspension obtained was adjusted to the desired content.
A 40×10^-9 molar P.A.F. solution was employed as a reagent. This solution was prepared from a 1.8×10^-3 molar stock solution in chloroform. To do this, a 10 μl sample of the stock solution was evaporated to dryness and dissolved again in 180 μl of the modified Tyrode buffer solution, to which 0.25% of lipid-free bovine serum albumin had been added. 10^-5 molar working solutions were then prepared from this and stored frozen. Samples of these solutions were appropriately diluted for tests.
In order to carry out the test, 50 μl of the blood platelet suspension and 10 μl of a 40×10^-5 molar solution of the compound to be investigated were added to […] of the modified Tyrode buffer solution with stirring (1000 rpm) in an aggregation tube provided with a small magnetic stirrer. This corresponded to a final test substance concentration of 10^-5 mole/l. After a preincubation time of 90 seconds, 10 μl of the P.A.F. preparation were added. For 4-5 minutes, the aggregation occurring in the aggregation tube was measured by means of a computerized aggregometer.
The aggregation occurring in the test tubes containing only the platelet suspension is rated as 0%. The aggregation occurring in the test tubes containing platelet suspension and P.A.F. preparation, in which a P.A.F.-induced increase in platelet aggregation takes place, is rated as 100%. The aggregation still occurring after addition of the test substances is measured, and from this the inhibition of the P.A.F.-inducedincrease in aggregation which takes place is calculated in %.

Row | inhibition at 10 µM (5-lipoxygenase) | Structure (SMILES) | inhibition at 10 µM [1]
1 | 100% | Cc1ccnc(N2CCN(C(=O)CC3Cn4c(-c5ccc(O)cc5)c(C)c5cccc(c54)O3)CC2)c1 (centres unmarked) [Example 17] | 99%
2 | 100% | Cc1ccnc(N2CCN(CCCCC3Cn4c(-c5cc(C)c(O)c(C)c5)c(C)c5cccc(c54)O3)CC2)c1 (centres unmarked) [Example 18] | 78%
3 | 97% | Cc1ccnc(N2CCN(CCC3Cn4c(-c5ccc(O)cc5)c(C)c5c(F)ccc(c54)O3)CC2)c1 (centres unmarked) [Example 22] | 84%
4 | 63% | Cc1ccnc(N2CCN(C(=O)CCC3Cn4c(-c5cc(C)c(O)c(C)c5)c(C)c5c(F)ccc(c54)O3)CC2)c1 (centres unmarked) [Example 54] | 65%
